# Source: patent publication US9862690B2, “Treatment of pulmonary and other conditions” (University of Pittsburgh—of the Commonwealth System of …, priority 2013, dated 2018)
# Columns and labels:
# [1] = system: alveolar macrophages; assay: Gene expression in alveolar macrophages isolated from BAL fluid of treated mice (real-time PCR); type: in vivo; conditions: mice given LPS then 25 mg/kg nebulized
# Description: Induction of ALI by intratracheal injection of LPS (50 μg) was followed 30 min later by nebulization of PB141 (25 mg/kg) or vehicle (saline) and delivery to cage air via a micropump nebulizer. After another 5.5 h BAL fluid was obtained. Alveolar macrophages were isolated from the BAL fluid and plated in DMEM+10% FBS. After 1 h, RNA was isolated and expression of the indicated genes was determined using real-time PCR; results were normalized to values for the housekeeping genes glyceraldehyde-3-phosphate dehydrogenase (GAPDH) and […]. Data are representative of one of two independent experiments with n=6-8 mice per group; **P<0.01; ***P<0.001.
# For additional in vitro studies, after the treatment described above alveolar macrophages were isolated from the BAL fluid and plated in DMEM+10% FBS. After 1 h, RNA was isolated and expression of the different genes was determined using real-time PCR; results were normalized to values for the housekeeping genes glyceraldehyde-3-phosphate dehydrogenase (GAPDH) and […]. […] In other experiments, PMNs were isolated from peripheral blood of endotoxin-treated mice by hetastarch exchange transfusion. PMN adhesion was assessed with the Cytoselect Leukocyte-Endothelium Adhesion Assay kit (CBA-210; Cell Biolabs) and transendothelial PMN migration was determined with the Cytoselect Leukocyte Transmigration Assay kit (CBA-212; Cell Biolabs).
# [2] = system: LPS-induced acute lung injury in mice; assay: LPS-induced acute lung injury model; type: in vivo; conditions: 25 mg/kg nebulized 30 min after LPS
# Description: Induction of ALI by intratracheal injection of LPS (50 μg) was followed 30 min later by nebulization of PB141 (25 mg/kg) or vehicle (saline) and delivery to cage air via a micropump nebulizer. After a further 5.5 h, BAL fluid, plasma, and lung samples were obtained. (A) Total cell and (B) neutrophil number in BAL fluid; myeloperoxidase activity in (C) lung tissue and (D) BAL fluid; (E) microscopic examination following staining of BAL fluid; (F) H2O2 production; (G) nitrate concentration, and (H) malonyldialdehyde/protein ratio in lung. Plasma levels of (I) MIP-2, (J) IL-6, (K) TNF-α, and (L) KC. Data are representative of one of two independent experiments with n=5-8 mice per group; *** p<0.001.
# Induction of ALI by intratracheal injection of LPS (50 μg) was followed 30 min later by nebulization of PB141 (25 mg/kg) or vehicle (saline) and delivery to cage air via a micropump nebulizer. After a further 5.5 h, BAL fluid and lung samples were obtained. (A) Protein concentration in BAL fluid. (B) Ratio of lung wet:dry weight. (C) Histological examination of the lung following H&E staining. Data are representative of one of two independent experiments with n=5-8 mice per group; *** p<0.001.
# Induction of ALI by intratracheal injection of LPS (50 μg) was followed 30 min later by nebulization of PB141 (25 mg/kg) or vehicle (saline) and delivery to cage air via a micropump nebulizer. After another 5.5 h lungs were excised and DNA-binding activity of the transcription factor Nrf2 was determined. Data is representative of one of two independent experiments with n=4-6 mice per group; *** p<0.001.
# Acute lung injury was induced by intratracheal injection of endotoxin (lipopolysaccharide; LPS) prepared from Escherichia coli 0111:B6 (Sigma-Aldrich; St. Louis, Mo.) into anesthetized mice. In other experiments, systemic sepsis was induced by intraperitoneal injection of endotoxin. Thirty minutes later PB141 (25 mg/kg) or vehicle (saline) was delivered to mice for 30 minutes via a micropump nebulizer (Buxco Research Systems, Wilmington, N.C.) fitted at the chamber inlet. Extent of lung injury after 5.5 h and systemic sepsis after 12 h were assessed by measuring lung tissue myeloperoxidase activity, polymorphonuclear neutrophil (PMN) count in bronchoalveolar lavage fluid, lung vascular permeability, pulmonary edema, and cytokine generation. Lung histology sections were assessed microscopically for evidence of inflammation and injury following hematoxylin and eosin (H&E) staining.
# [3] = system: lung epithelial cells (BEAS2B); assay: IFN-γ or IL-4/IL-13 stimulated lung epithelial cells; type: cell-based; conditions: 10 ng/ml IFN-γ or IL-4/IL-13 for 6 h
# From the text: It suppressed the infiltration of inflammatory cells into the airspace and lung and attenuated the expression of cytokines, chemokines, and IgE in BALF and serum.
# [4] = system: BEAS-2B cells; type: cell-based
# Description: To evaluate cell viability, apoptosis, and cytotoxicity, the Apo Tox-Glo Triplex assay was used according to the manufacturer's instructions (Promega, Madison, Wis.). Briefly, the BEAS-2B cells were plated at 2×10^4 cells/well in 100 μl medium in an opaque walled, clear-bottomed, 96-well plate. After 24 hr culture, they were treated for a further indicated time with different concentrations of PB141 or PB157. At the end of the culture period, 20 μl viability/cytotoxicity reagent was added to each well, mixed by orbital shaking (300 r.p.m. for 30 s) and incubated for 30 min at 37° C. Fluorescence was then measured with excitation at 400 nm and emission at 505 nm to assess cell viability, and 485 nm excitation and 520 nm emission to assess cytotoxicity; both were quantified as relative fluorescence units (RFU). Then, 100 μl Caspase-Glo 3/7 reagent was added to each well, mixed by orbital shaking (300 r.p.m. for 30 s) and incubated for 30 min at room temperature. Luminescence was measured to assess caspase activation as a marker of apoptosis and quantified as relative luminescence units. Results for PB141 and PB157 were similar.
smiles,measurement,setting,value
CC(=O)N[C@@H](CSC(CC(=O)CC(SC[C@H](NC(C)=O)C(=O)O)c1cnccn1)c1cnccn1)C(=O)O (stereo partly drawn) [PB141],Transcription of antioxidant genes in alveolar macrophages,[1],increased
same,Transcription of inflammatory genes in alveolar macrophages,[1],decreased
same,"Cytokine generation (plasma MIP-2, IL-6, TNF-α, KC)",[2]; 5.5 h,reduced
same,Edema (lung wet:dry weight),[2]; 5.5 h,reduced
same,Lung Nrf2 DNA-binding activity after LPS,[2]; 5.5 h,reverses the LPS-induced decrease
same,Lung myeloperoxidase activity,[2]; 5.5 h,decreased
same,"Oxidant stress (H2O2, nitrate, malonyldialdehyde)",[2]; 5.5 h,reduced
same,PMN count in BAL fluid,[2]; 5.5 h,decreased
same,PMN infiltration into the alveolar space,[2]; 5.5 h,effectively prevented
same,Lung injury seen histologically,[2]; H&E,Decreased lung injury
same,Cytokine generation,[3],inhibited
same,NO production,[3],inhibited
same,iNOS expression,[3],inhibited
same,Cytotoxicity,[4],without exhibiting cytotoxicity
same,Apoptosis (caspase 3/7 activation),"[4]; different concentrations, data not shown",induced apoptosis
